Some test systems named below: A498; ACHN; EKVX; HCT-15; HOP-92; IGROV-1; K562; LOX IMVI; MOLT-4; NCI-H522; OVCAR-3; SF-539; SNB-19; TK-10; HL-60; SK-OV-3.
Holding throughout (assay): NCI tumour cell line growth inhibition, 48 h

The structures appear in SMILES notation.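 Interpolation was linear, between the two tested concentrations surrounding the appropriate level; five concentrations were tested over 48 hours in 96-well plates. Abbreviation: GI50, concentration required for 50% inhibition of growth.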 Calls of active or inactive are those of the source. Rule as the data show it: active = GI50 up to about 1.1 µM and inactive = higher.

Regarding `O=C1c2ccccc2C(=O)c2c1ccc(O)c2O` [ATHRAQUINONES A], the GI50 in the assay with A498 is 39.5 µM (inactive); with ACHN it was 34.8 µM (inactive); in the assay on EKVX it was 26.9 µM (inactive); in the assay on HCT-15, 37.1 µM; with HOP-92, 38.6 µM (inactive); in the assay on IGROV-1, 35.6 µM (inactive). For the same compound, the GI50 was 36.1 µM (inactive) in the assay on K562; 37.8 µM (inactive) in the assay with LOX IMVI; 32.4 µM (inactive) in the assay with MOLT-4; 39.4 µM (inactive) in the assay with NCI-H522; 32.9 µM (inactive) with OVCAR-3; 42.6 µM (inactive) with SF-539. For the same compound, the GI50 in the assay on SNB-19 was 61.2 µM (inactive); in the assay with TK-10, > 100 µM (inactive).

For the compound `CC(C)COC(=O)c1ccc(/N=C\c2ccc(/C=N/c3ccc(C(=O)OCC(C)C)cc3)cc2)cc1`, the GI50 is > 100 µM (inactive) in the assay with ACHN; > 100 µM with HCT-15; > 100 µM (inactive) in the assay on HL-60; > 100 µM (inactive) in the assay with HOP-92; > 100 µM (inactive) in the assay with IGROV-1; > 100 µM (inactive) in the assay with K562. Further, the GI50 with LOX IMVI, in the assay with MOLT-4, with NCI-H522, in the assay with OVCAR-3, in the assay on SF-539 and in the assay on SK-OV-3 was > 100 µM (inactive) each time. For the same compound, the GI50 in the assay on SNB-19 and in the assay with TK-10 was > 100 µM (inactive) in each case.

Turning to `Nc1nc(Cl)cc(NCCCCCCCCCCNc2cc(Cl)nc(N)n2)n1`, the GI50 was < 0.01 µM (active) in the assay on ACHN; 4 µM (inactive) in the assay with EKVX; 3.55 µM in the assay with HCT-15; 2.34 µM (inactive) in the assay with HL-60; 28.6 µM (inactive) in the assay with HOP-92; 22.2 µM (inactive) in the assay with IGROV-1. In addition, the GI50 in the assay with K562 was 0.0897 µM (active); in the assay on LOX IMVI it was 1.56 µM (inactive); in the assay with NCI-H522, 0.415 µM (active); in the assay on OVCAR-3, 1.82 µM (inactive); in the assay on SF-539, 22.1 µM (inactive); in the assay with SK-OV-3, 87.3 µM (inactive). Also, the GI50 was 75 µM (inactive) in the assay on SNB-19 and 16.5 µM (inactive) in the assay with TK-10.

Consider `CNc1nc(N)cc(O)n1`, for which the GI50 in the assay on A498 was > 100 µM (inactive); with ACHN, > 100 µM (inactive); with EKVX it was > 100 µM (inactive); with HCT-15, > 100 µM; with HL-60, > 100 µM (inactive); in the assay with IGROV-1, > 100 µM (inactive). The GI50 in the assay with K562, in the assay with LOX IMVI, in the assay on MOLT-4, with NCI-H522, with OVCAR-3 and in the assay on SK-OV-3 was > 100 µM (inactive) throughout. The GI50 with SNB-19 and in the assay with TK-10 was > 100 µM (inactive) throughout.

Regarding `O=C1C2c3[nH]c4ccccc4c3C3CCCC3C2C(=O)N1c1ccccc1` (centres undefined), the GI50 in the assay with A498 is > 100 µM (inactive); in the assay with ACHN, > 100 µM (inactive); in the assay on EKVX, > 100 µM (inactive); with HCT-15, 78 µM; with IGROV-1 it was > 100 µM (inactive); in the assay with K562, > 100 µM (inactive). Moreover, the GI50 in the assay with LOX IMVI, in the assay on MOLT-4, in the assay with OVCAR-3, in the assay with SF-539, in the assay on SK-OV-3 and in the assay on TK-10 was > 100 µM (inactive) throughout.

In the case of `COC[n+]1cc2cc(OC)c(OC)cc2c2ccc3cc(OC)c(OC)cc3c21`, the GI50 in the assay on ACHN was > 100 µM (inactive); with EKVX, > 100 µM (inactive); with HCT-15, > 100 µM; with HL-60, > 100 µM (inactive); with HOP-92 it was > 100 µM (inactive); in the assay on IGROV-1, > 100 µM (inactive). Further, the GI50 in the assay with K562, in the assay on LOX IMVI, in the assay with MOLT-4, with NCI-H522, with OVCAR-3 and in the assay on SF-539 was > 100 µM (inactive) each time. Moreover, the GI50 in the assay on SNB-19 and with TK-10 was > 100 µM (inactive) throughout.

In the case of `CN(C)CC(/C(Cc1ccccc1)=N\NC(=O)c1ccncc1)c1ccccc1` (centres undefined), the GI50 was 27.5 µM (inactive) with ACHN; 23.6 µM (inactive) in the assay on EKVX; 4.17 µM (inactive) in the assay with HL-60; 19.2 µM (inactive) with HOP-92; 47.6 µM (inactive) in the assay with IGROV-1; 31.2 µM (inactive) in the assay on K562. Also, the GI50 in the assay on LOX IMVI is 30.2 µM (inactive); in the assay on NCI-H522 it was 27.4 µM (inactive); in the assay on OVCAR-3 it was 20.1 µM (inactive); in the assay with SF-539, 43.7 µM (inactive); in the assay with SK-OV-3 it was 38 µM (inactive); in the assay on SNB-19, 39 µM (inactive). Also, the GI50 in the assay on TK-10 was 34.2 µM (inactive).

Take `C1CN2N3CCCC23C1` (centres undefined): the GI50 in the assay on A498 is > 100 µM (inactive); in the assay with ACHN, > 100 µM (inactive); in the assay on EKVX, > 100 µM (inactive); in the assay with HCT-15, > 100 µM; with HL-60, > 100 µM (inactive); in the assay on IGROV-1, > 100 µM (inactive). The GI50 in the assay on K562, in the assay with LOX IMVI, in the assay with MOLT-4, with NCI-H522, with OVCAR-3 and with SF-539 was > 100 µM (inactive) each time. Moreover, the GI50 in the assay on SK-OV-3, with SNB-19 and with TK-10 was > 100 µM (inactive) in each case.

With `C[C@@]1(Cc2ccccc2)C(=O)N2[C@@H](CO)C(c3ccccc3)O[C@]2(C)c2ccccc21` (some centres undefined), the GI50 in the assay with ACHN was > 100 µM (inactive); in the assay on EKVX, > 100 µM (inactive); in the assay on HCT-15, > 100 µM; in the assay with HL-60, > 100 µM (inactive); in the assay with HOP-92, > 100 µM (inactive); in the assay with IGROV-1, > 100 µM (inactive). For the same compound, the GI50 in the assay with K562 was > 100 µM (inactive); in the assay with LOX IMVI, > 100 µM (inactive); with MOLT-4, 32.3 µM (inactive); with NCI-H522, 81.1 µM (inactive); in the assay on OVCAR-3, > 100 µM (inactive); with SF-539, > 100 µM (inactive). The GI50 in the assay with SK-OV-3, in the assay on SNB-19 and in the assay on TK-10 was > 100 µM (inactive) each time.

In the case of `COc1cc(/C=C(\NC(=O)c2ccccc2)c2nc3cncnc3[nH]2)cc(OC)c1OC`, the GI50 was > 100 µM (inactive) in the assay on ACHN; > 100 µM (inactive) in the assay with EKVX; > 100 µM with HCT-15; > 100 µM (inactive) in the assay with HL-60; 88.1 µM (inactive) in the assay on HOP-92; > 100 µM (inactive) in the assay on IGROV-1. For the same compound, the GI50 with K562, in the assay on MOLT-4, with NCI-H522, in the assay on OVCAR-3, with SF-539 and in the assay with SK-OV-3 was > 100 µM (inactive) in each case. Also, the GI50 in the assay on SNB-19 and in the assay on TK-10 was > 100 µM (inactive) each time.

As to `CC(C)=Cc1cc(C(=O)Nc2ccc(Cl)c(Cl)c2)nc(N)n1`, the GI50 in the assay on A498 was > 100 µM (inactive); in the assay on ACHN it was > 100 µM (inactive); in the assay with EKVX it was > 100 µM (inactive); in the assay with HCT-15 it was > 100 µM; with HL-60 it was > 100 µM (inactive); with HOP-92 it was > 100 µM (inactive). Further, the GI50 in the assay on IGROV-1, in the assay with K562, with LOX IMVI, in the assay with MOLT-4, with OVCAR-3 and in the assay with SF-539 was > 100 µM (inactive) each time. Further, the GI50 in the assay with SNB-19 and in the assay on TK-10 was > 100 µM (inactive) each time.

For the compound `C[C@H](CCC1SC1(C)C)C1CCC2(C)C3=C(CC[C@]12C)[C@@]1(C)CC[C@H](O)C(C)(C)C1CC3` (some centres undefined), the GI50 with A498 is > 100 µM (inactive); in the assay on ACHN, 61 µM (inactive); with EKVX it was > 100 µM (inactive); with HCT-15, > 100 µM; in the assay on HL-60, > 100 µM (inactive); in the assay with HOP-92 it was > 100 µM (inactive). Also, the GI50 in the assay on IGROV-1, in the assay with K562, with LOX IMVI, in the assay on MOLT-4, with NCI-H522 and in the assay on OVCAR-3 was > 100 µM (inactive) in each case. Moreover, the GI50 in the assay on SK-OV-3, with SNB-19 and with TK-10 was > 100 µM (inactive) in each case.

With `NCCNC(=O)c1cccc2cc3ccccc3nc12`, the GI50 with A498 was 1.81 µM (inactive); in the assay with ACHN, 1.02 µM (active); in the assay on EKVX, 3.7 µM (inactive); in the assay on HCT-15 it was 1.91 µM; in the assay with HOP-92, 19.6 µM (inactive); with IGROV-1, 3.48 µM (inactive). For the same compound, the GI50 is 2.15 µM (inactive) with K562; 1.24 µM (inactive) in the assay with LOX IMVI; 0.333 µM (active) in the assay with MOLT-4; 3.57 µM (inactive) with NCI-H522; 3.66 µM (inactive) in the assay with OVCAR-3; 4.35 µM (inactive) with SF-539. The results for the GI50 in the assay on SK-OV-3, with SNB-19 and in the assay with TK-10 were 4.82 µM (inactive), 4.09 µM (inactive) and 2.3 µM (inactive), respectively.

As to `Cc1ccc2nc(NC(=O)C(=O)C(C#N)c3ccc(Cl)cc3)sc2c1` (centres undefined), the GI50 in the assay with ACHN is > 50 µM (inactive); in the assay on EKVX, > 50 µM (inactive); in the assay on HCT-15, > 50 µM; in the assay with HOP-92, > 50 µM (inactive); in the assay with IGROV-1, > 50 µM (inactive); in the assay with LOX IMVI, > 50 µM (inactive). For the same compound, the GI50 in the assay on OVCAR-3, with SF-539, with SK-OV-3, in the assay with SNB-19 and with TK-10 was > 50 µM (inactive) in each case.
